Read-outs that look alike come from different tables or passages of the source.
Tests used:
Type in all cases: cell-based
[1] = tested on: BT474 cells (HER2 positive breast cancer cells); assay: Cell viability assay (CCK8), BT474 cells; conditions: Homo sapiens, BT-474, Table 10, BT474, 72 hours, read-out: IC50 (half inhibitory concentration)
Description: The cell lines with abnormal EGFR expression used are as follows: • HCC827 cells (EGFR Exon19 del, non-small cell lung cancer cells); • PC9 cells (EGFR Exon 19 del, non-small cell lung cancer cells); • PC9BracA1 (EGFR Exon 19 del+T790M, non-small cell lung cancer cells) • H1975 (EGFR Exon T790M+L858R mutation, non-small cell lung cancer cell line) • BT474 cells (HER2 positive breast cancer cells)
All of the half inhibitory concentrations (IC50) of these compounds of the present invention were determined with WST reagent from Fuyuan Biotec Company. The specific experiment procedures are as follows: Cancer cells were planted in 96-well-plate at the density of 3 000 cells per well with 100 μL RPMI1640 completed culture medium. In the next day, compounds with indicated concentrations were added to the cells, DMSO was used as the negative control and the EGFR TKIs were used to treat cells as the positive groups. After 72 hours drug treatment, cell viability was measured by using the WST reagent following the instructions. The growth inhibition curve of the compounds on cells were plotted by Prism GraphPad, and the compounds IC50 calculated from it.
The cell viability assays were taken to determine the anti-tumor activity of these indicated compounds in BT474 cells, which can overexpress HER2 protein. The cells were treated with the gradient concentration of these compounds (the maximum concentration: 10 μM; 3-fold dilution ratio, 10 concentration gradients) for 72 hours and then incubated with the CCK8 reagent to determine the cell viability.

[2] = tested on: PC9 cells (EGFR Exon 19 del, non-small cell lung cancer cells); assay: Cell viability assay (WST/CCK8), PC9 cells; conditions: Homo sapiens, read-out: IC50 (half inhibitory concentration)
In short: (§1)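 Cells seeded at 3 000/well in RPMI1640 complete medium, dosed next day with compounds (top 10 μM, 3-fold, 10 points) for 72 h. Viability read with WST (CCK8) reagent; DMSO as negative control, EGFR TKIs as positive controls; IC50 determined.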

[3] = tested on: HCC827 cells (EGFR Exon19 del, non-small cell lung cancer cells); assay: Cell viability assay (WST/CCK8), HCC827 cells; conditions: Homo sapiens, HCC827, 72 h, read-out: IC50 (half inhibitory concentration)
In short: as §1

[4] = PC-9, PC9 (Exon19 Del), 72 hours, WST (CCK8)
[5] = HCC827 (Exon19 Del), 72 hours, WST (CCK8)
[6] = PC-9, Table 6, canertinib-based compounds, PC9 (Exon19 Del), 72 hours, WST
[7] = Table 6, canertinib-based compounds, HCC827 (Exon19 Del), 72 hours, WST

IC50 [1] | IC50 [2, 4] | IC50 [3, 5] | IC50 [2, 6] | IC50 [3, 7] | IC50 ([2]; PC-9, 72 h) | IC50 [3] | SMILES
12.3 nM | 0.8 nM | 20 nM | – | – | – | – | COc1cc2ncnc(Nc3ccc(F)c(Cl)c3)c2cc1NC(=O)/C=C/CN1CCC(N)CC1 [SIAIS249077, (E)-4-(4-aminopiperidin-1-yl)-N-(4-((3-chloro-4-fluorophenyl)amino)-7-methoxyquinazolin-6-yl)but-2-enamide]
52.5 nM | 6.1 nM | 6 nM | – | – | – | – | COc1cc2ncnc(Nc3ccc(F)c(Cl)c3)c2cc1NC(=O)/C=C/CN1CCC(NC(=O)CCNc2cccc3c2C(=O)N(C2CCC(=O)NC2=O)C3=O)CC1 (centres unmarked) [SIAIS249082, (E)-N-(4-((3-chloro-4-fluorophenyl)amino)-7-methoxyquinazolin-6-yl)-4-(4-(3-((2-(2,6-dioxopiperidin-3-yl)-1,3-dioxoisoindolin-4-yl)amino)propanamido)piperidin-1-yl)but-2-enamide]
35.6 nM | – | – | 29.7 nM | 11.8 nM | – | – | C=CC(=O)Nc1cc2c(Nc3ccc(F)c(Cl)c3)ncnc2cc1OCCCN1CCN(C(=O)CCC(=O)NCCOCCNc2cccc3c2C(=O)N(C2CCC(=O)NC2=O)C3=O)CC1 (centres unmarked) [SIAIS249099, 4-(4-(3-((6-acrylamido-4-((3-chloro-4-fluorophenyl)amino)quinazolin-7-yl)oxy)propyl)piperazin-1-yl)-N-(2-(2-((2-(2,6-dioxopiperidin-3-yl)-1,3-dioxoisoindolin-4-yl)amino)ethoxy)ethyl)-4-oxobutanamide]
3.8 nM | – | – | 16 nM | 25.2 nM | – | – | C=CC(=O)Nc1cc2c(Nc3ccc(F)c(Cl)c3)ncnc2cc1OCCCN1CCN(C(=O)CCc2ccc(CCC(=O)N[C@H](C(=O)N3C[C@H](O)C[C@H]3C(=O)NCc3ccc(-c4scnc4C)cc3)C(C)(C)C)cc2)CC1 [SIAIS249102, (2S,4R)-1-((S)-2-(3-(4-(3-(4-(3-((6-acrylamido-4-((3-chloro-4-fluorophenyl)amino)quinazolin-7-yl)oxy)propyl)piperazin-1-yl)-3-oxopropyl)phenyl)propanamido)-3,3-dimethylbutanoyl)-4-hydroxy-N-(4-(4-methylthiazol-5-yl)benzyl)pyrrolidine-2-carboxamide]
0.7 nM | 3.8 nM | ~1 nM | – | – | – | – | COc1cc2ncnc(Nc3ccc(F)c(Cl)c3)c2cc1NC(=O)/C=C/CN1CCC(N2CCN(C(=O)CCCCCCSc3cccc4c3C(=O)N(C3CCC(=O)NC3=O)C4=O)CC2)CC1 (centres unmarked) [SIAIS262033, (E)-N-(4-((3-chloro-4-fluorophenyl)amino)-7-methoxyquinazolin-6-yl)-4-(4-(4-(7-((2-(2,6-dioxopiperidin-3-yl)-1,3-dioxoisoindolin-4-yl)thio)heptanoyl)piperazin-1-yl)piperidin-1-yl)but-2-enamide]
1.85 nM | – | – | – | – | – | – | COc1cc2ncnc(Nc3ccc(F)c(Cl)c3)c2cc1NC(=O)/C=C/CN1CCC(N2CCN(CCCCCSc3cccc4c3CN(C3CCC(=O)NC3=O)C4=O)CC2)CC1 (centres unmarked) [SIAIS262064, (E)-N-(4-((3-chloro-4-fluorophenyl)amino)-7-methoxyquinazolin-6-yl)-4-(4-(4-(5-((2-(2,6-dioxopiperidin-3-yl)-1-oxoisoindolin-4-yl)thio)pentyl)piperazin-1-yl)piperidin-1-yl)but-2-enamide]
67.7 nM | 3.9 nM | 49 nM | – | – | – | – | COc1cc2ncnc(Nc3ccc(F)c(Cl)c3)c2cc1NC(=O)/C=C/CN1CCC(NC(=O)CCCCSc2cccc3c2CN(C2CCC(=O)NC2=O)C3=O)CC1 (centres unmarked) [SIAIS262113, (E)-N-(1-(4-((4-((3-chloro-4-fluorophenyl)amino)-7-methoxyquinazolin-6-yl)amino)-4-oxobut-2-en-1-yl)piperidin-4-yl)-5-((2-(2,6-dioxopiperidin-3-yl)-1-oxoisoindolin-4-yl)thio)pentanamide]
90 nM | 11.9 nM | 4 nM | – | – | – | – | COc1cc2ncnc(Nc3ccc(F)c(Cl)c3)c2cc1NC(=O)/C=C/CN1CCC(NC(=O)CCCCCSc2cccc3c2CN(C2CCC(=O)NC2=O)C3=O)CC1 (centres unmarked) [SIAIS262114, (E)-N-(1-(4-((4-((3-chloro-4-fluorophenyl)amino)-7-methoxyquinazolin-6-yl)amino)-4-oxobut-2-en-1-yl)piperidin-4-yl)-6-((2-(2,6-dioxopiperidin-3-yl)-1-oxoisoindolin-4-yl)thio)hexanamide]
83 nM | 3.3 nM | 11 nM | – | – | – | – | COc1cc2ncnc(Nc3ccc(F)c(Cl)c3)c2cc1NC(=O)/C=C/CN1CCC(NCCCC#Cc2cccc3c2CN(C2CCC(=O)NC2=O)C3=O)CC1 (centres unmarked) [SIAIS262116, (E)-N-(4-((3-chloro-4-fluorophenyl)amino)-7-methoxyquinazolin-6-yl)-4-(4-((5-(2-(2,6-dioxopiperidin-3-yl)-1-oxoisoindolin-4-yl)pent-4-yn-1-yl)amino)piperidin-1-yl)but-2-enamide]
484 nM | 31.2 nM | 16 nM | – | – | – | – | COc1cc2ncnc(Nc3ccc(F)c(Cl)c3)c2cc1NC(=O)/C=C/CN1CCC(NCCCCC#Cc2cccc3c2CN(C2CCC(=O)NC2=O)C3=O)CC1 (centres unmarked) [SIAIS262117, (E)-N-(4-((3-chloro-4-fluorophenyl)amino)-7-methoxyquinazolin-6-yl)-4-(4-((6-(2-(2,6-dioxopiperidin-3-yl)-1-oxoisoindolin-4-yl)hex-5-yn-1-yl)amino)piperidin-1-yl)but-2-enamide]
5.3 nM | – | – | 43.4 nM | 9.3 nM | – | – | C=CC(=O)Nc1cc2c(Nc3ccc(F)c(Cl)c3)ncnc2cc1OCCCN1CCN(C(=O)CSc2cccc3c2CN(C2CCC(=O)NC2=O)C3=O)CC1 (centres unmarked) [SIAIS262121, N-(4-((3-chloro-4-fluorophenyl)amino)-7-(3-(4-(2-((2-(2,6-dioxopiperidin-3-yl)-1-oxoisoindolin-4-yl)thio)acetyl)piperazin-1-yl)propoxy)quinazolin-6-yl)acrylamide]
42.1 nM | – | – | 15.9 nM | 14.3 nM | – | – | C=CC(=O)Nc1cc2c(Nc3ccc(F)c(Cl)c3)ncnc2cc1OCCCN1CCN(C(=O)CCCC(=O)N[C@H](C(=O)N2C[C@H](O)C[C@H]2C(=O)NCc2ccc(-c3scnc3C)cc2)C(C)(C)C)CC1 [SIAIS262128, (2S,4R)-1-((S)-2-(5-(4-(3-((6-acrylamido-4-((3-chloro-4-fluorophenyl)amino)quinazolin-7-yl)oxy)propyl)piperazin-1-yl)-5-oxopentanamido)-3,3-dimethylbutanoyl)-4-hydroxy-N-(4-(4-methylthiazol-5-yl)benzyl)pyrrolidine-2-carboxamide]
51.5 nM | 13 nM | 1.1 nM | – | – | – | – | COc1cc2ncnc(Nc3ccc(F)c(Cl)c3)c2cc1NC(=O)/C=C/CN1CCC(N2CCN(Cc3ccc(CNc4cccc5c4CN(C4CCC(=O)NC4=O)C5=O)cc3)CC2)CC1 (centres unmarked) [SIAIS337024, (E)-N-(4-((3-chloro-4-fluorophenyl)amino)-7-methoxyquinazolin-6-yl)-4-(4-(4-(4-(((2-(2,6-dioxopiperidin-3-yl)-1-oxoisoindolin-4-yl)amino)methyl)benzyl)piperazin-1-yl)piperidin-1-yl)but-2-enamide]
– | 1.6 nM | 0.3 nM | – | – | – | – | COc1cc2ncnc(Nc3ccc(F)c(Cl)c3)c2cc1NC(=O)/C=C/CN1CCC(N2CCN(C(=O)CCCCCCCCCCSc3cccc4c3CN(C3CCC(=O)NC3=O)C4=O)CC2)CC1 (centres unmarked) [SIAIS337038, (E)-N-(4-((3-chloro-4-fluorophenyl)amino)-7-methoxyquinazolin-6-yl)-4-(4-(4-(11-((2-(2,6-dioxopiperidin-3-yl)-1-oxoisoindolin-4-yl)thio)undecanoyl)piperazin-1-yl)piperidin-1-yl)but-2-enamide]
– | 19.7 nM | 5.7 nM | – | – | – | – | COc1cc2ncnc(Nc3ccc(F)c(Cl)c3)c2cc1NC(=O)/C=C/CN1CCC(N2CCN(CCCCCCCCCCSc3cccc4c3CN(C3CCC(=O)NC3=O)C4=O)CC2)CC1 (centres unmarked) [SIAIS337039, (E)-N-(4-((3-chloro-4-fluorophenyl)amino)-7-methoxyquinazolin-6-yl)-4-(4-(4-(10-((2-(2,6-dioxopiperidin-3-yl)-1-oxoisoindolin-4-yl)thio)decyl)piperazin-1-yl)piperidin-1-yl)but-2-enamide]
17.5 nM | – | – | – | – | 0.9 nM | 0.7 nM | C=CC(=O)Nc1cc2c(Nc3ccc(F)c(Cl)c3)ncnc2cc1OCCCN1CCOCC1 [canertinib, reference compound]
